Assay results published in patent US10308637B2 (LifeSci Pharmaceuticals, Inc., priority 2015, dated 2019).

Experiment: Contact Assay (percentage inhibition from fluorescence intensity)
Type: biochemical
Protocol: The percentage inhibition was calculated using the following equation:
[formula] where, Mean(BG) is the average value of the fluorescence intensity of the background wells and Mean(PC) is the average value of the fluorescence intensity of the positive control wells.
Table 4 provides the EC50 values of various compounds disclosed herein.

Row | EC50 | Structure (SMILES)
1 | 100 to 1000 nM | O=C(NCc1n[nH]c2ccc(Cl)cc12)c1ccnc(Cc2ccc3ncc(C4CC4)cc3c2)c1 [Example 249, N-((5-chloro-1H-indazol-3-yl)methyl)-2-((3-cyclopropylquinolin-6-yl)methyl)isonicotinamide]
2 | ≤ 100 nM | Nc1nccc2cc(CNC(=O)c3ccnc(Cc4cnc5ccc(F)cc5c4)c3)ccc12 [Example 118, N-((1-aminoisoquinolin-6-yl)methyl)-2-((6-fluoroquinolin-3-yl)methyl)isonicotinamide]
3 | ≤ 100 nM | CCCc1cnc2ccc(Cc3cc(C(=O)NCc4c(C)cc(N)nc4C)ccn3)cc2c1 [Example 255, N-((6-amino-2,4-dimethylpyridin-3-yl)methyl)-2-((3-propylquinolin-6-yl)methyl)isonicotinamide]
4 | ≤ 100 nM | Cc1cc(N)nc(C)c1CNC(=O)c1cc(Cc2ccc3ncc(Cl)cc3c2)nc(C(C)(C)O)c1 [Example 210, N-((6-amino-2,4-dimethylpyridin-3-yl)methyl)-2-((3-chloroquinolin-6-yl)methyl)-6-(2-hydroxypropan-2-yl)isonicotinamide]
5 | ≤ 100 nM | COc1cnc2ccc(Cc3cc(C(=O)NCc4c(C)cc(N)nc4C)ccn3)cc2c1 [Example 264, N-((6-amino-2,4-dimethylpyridin-3-yl)methyl)-2-((3-methoxyquinolin-6-yl)methyl)isonicotinamide]
6 | 100 to 1000 nM | Cc1cc(N)nc(C)c1CNC(=O)c1ccnc(C(O)c2ccc3ncc(Cl)cc3c2)c1 (stereo not shown) [Example 275, N-((6-amino-2,4-dimethylpyridin-3-yl)methyl)-2-((3-chloroquinolin-6-yl)(hydroxy)methyl)isonicotinamide]
7 | 100 to 1000 nM | O=C(NCc1ccc2[nH]cc(Cl)c2c1F)c1ccnc(Cc2ccc3ncc(C(F)(F)F)cc3c2)c1 [Example 234, N-((3-chloro-4-fluoro-1H-indol-5-yl)methyl)-2-((3-(trifluoromethyl)quinolin-6-yl)methyl)isonicotinamide]
8 | ≤ 100 nM | Nc1nc(C(F)(F)F)n2cc(CNC(=O)c3ccnc(Cc4ccc5ncc(Cl)cc5c4)c3)ccc12 [Example 186, N-((1-amino-3-(trifluoromethyl)imidazo[1,5-a]pyridin-6-yl)methyl)-2-((3-chloroquinolin-6-yl)methyl)isonicotinamide]
9 | 100 to 1000 nM | O=C(NCc1ccc2[nH]cc(Cl)c2c1F)c1ccnc(Cc2ccc3ncc(C4CC4)cc3c2)c1 [Example 248, N-((3-chloro-4-fluoro-1H-indol-5-yl)methyl)-2-((3-cyclopropylquinolin-6-yl)methyl)isonicotinamide]
10 | ≤ 100 nM | Cc1cc(N)nc(C)c1CNC(=O)c1ccnc(Cc2cc(C(=O)O)c3ncc(Cl)cc3c2)c1 [Example 93, 6-((4-(((6-amino-2,4-dimethylpyridin-3-yl)methyl)carbamoyl)pyridin-2-yl)methyl)-3-chloroquinoline-8-carboxylic acid]
11 | 100 to 1000 nM | Cc1cc(CN)nc(C)c1CNC(=O)c1ccnc(Cc2ccc3ncc(Cl)cc3c2)c1 [Example 171, N-((6-(aminomethyl)-2,4-dimethylpyridin-3-yl)methyl)-2-((3-chloroquinolin-6-yl)methyl)isonicotinamide]
12 | 100 to 1000 nM | CC(C)(O)c1cc(Cc2cc(C(=O)NCc3n[nH]c4ccc(Cl)cc34)ccn2)cc2cc(Cl)cnc12 [Example 225, N-((5-chloro-1H-indazol-3-yl)methyl)-2-((3-chloro-8-(2-hydroxypropan-2-yl)quinolin-6-yl)methyl)isonicotinamide]
13 | ≤ 100 nM | CS(=O)(=O)c1cc(Cc2cc(C(=O)NCc3cc4c(Cl)c[nH]c4cc3F)ccn2)cc2cc(Cl)cnc12 [Example 68, N-((3-chloro-6-fluoro-1H-indol-5-yl)methyl)-2-((3-chloro-8-(methylsulfonyl)quinolin-6-yl)methyl)isonicotinamide]
14 | 100 to 1000 nM | Cc1nc2c(c(C)c1CNC(=O)c1ccnc(Cc3ccc4ncc(C(F)(F)F)cc4c3)c1)CCN2 [Example 176, N-((4,6-dimethyl-2,3-dihydro-1H-pyrrolo[2,3-b]pyridin-5-yl)methyl)-2-((3-(trifluoromethyl)quinolin-6-yl)methyl)isonicotinamide]
15 | 100 to 1000 nM | Nc1nccc2cc(CNC(=O)c3ccnc(Cc4ccc5ncc(C(F)(F)F)cc5c4)c3)c(F)cc12 [Example 182, N-((1-amino-7-fluoroisoquinolin-6-yl)methyl)-2-((3-(trifluoromethyl)quinolin-6-yl)methyl)isonicotinamide]
16 | ≤ 100 nM | CCc1cnc2ccc(Cc3cc(C(=O)NCc4c(C)cc(N)nc4C)ccn3)cc2c1 [Example 286, N-((6-amino-2,4-dimethylpyridin-3-yl)methyl)-2-((3-ethylquinolin-6-yl)methyl)isonicotinamide]
17 | 100 to 1000 nM | O=C(NCc1ccc2[nH]cc(Cl)c2c1F)c1ccnc(Cc2ccc3ncc(Cl)cc3c2)c1 [Example 40, N-(3-Chloro-4-fluoro-1H-indol-5-ylmethyl)-2-(3-chloro-quinolin-6-ylmethyl)-isonicotinamide]
18 | 100 to 1000 nM | CC(C)(O)c1cc(Cc2cc(C(=O)NCc3ccc4[nH]cc(Cl)c4c3F)ccn2)cc2cc(Cl)cnc12 [Example 222, N-((3-chloro-4-fluoro-1H-indol-5-yl)methyl)-2-((3-chloro-8-(2-hydroxypropan-2-yl)quinolin-6-yl)methyl)isonicotinamide]
19 | ≤ 100 nM | Cc1cc(N)nc(C)c1CNC(=O)c1ccnc(Cc2cc(S(N)(=O)=O)c3ncc(Cl)cc3c2)c1 [Example 235, N-((6-amino-2,4-dimethylpyridin-3-yl)methyl)-2-((3-chloro-8-sulfamoylquinolin-6-yl)methyl)isonicotinamide]
20 | ≤ 100 nM | Cc1cc(N)nc(C)c1CNC(=O)c1ccnc(Cc2cc3cc(Cl)cn3cn2)c1 [Example 153, N-((6-amino-2,4-dimethylpyridin-3-yl)methyl)-2-((6-chloropyrrolo[1,2-c]pyrimidin-3-yl)methyl)isonicotinamide]
21 | 100 to 1000 nM | Cc1cc(N)nc(C)c1CNC(=O)c1ccnc(Cc2cc3cc(C(F)(F)F)cnc3[nH]2)c1 [Example 215, N-((6-amino-2,4-dimethylpyridin-3-yl)methyl)-2-((5-(trifluoromethyl)-1H-pyrrolo[2,3-b]pyridin-2-yl)methyl)isonicotinamide]
22 | 100 to 1000 nM | Cc1cnc2c(S(N)(=O)=O)cc(Cc3cc(C(=O)NCc4n[nH]c5ccc(Cl)cc45)ccn3)cc2c1 [Example 288, N-((5-chloro-1H-indazol-3-yl)methyl)-2-((3-methyl-8-sulfamoylquinolin-6-yl)methyl)isonicotinamide]
23 | ≤ 100 nM | Cc1cnc2c(S(C)(=O)=O)cc(Cc3cc(C(=O)NCc4cc5c(Cl)c[nH]c5cc4F)ccn3)cc2c1 [Example 17, N-((3-chloro-6-fluoro-1H-indol-5-yl)methyl)-2-((3-methyl-8-(methylsulfonyl)quinolin-6-yl)methyl)isonicotinamide]
24 | 100 to 1000 nM | Cc1cc(N)nc(C)c1CNC(=O)c1ccnc(C(C)(O)c2ccc3ncc(Cl)cc3c2)c1 (stereo not shown) [Example 277, N-((6-amino-2,4-dimethylpyridin-3-yl)methyl)-2-(1-(3-chloroquinolin-6-yl)-1-hydroxyethyl)isonicotinamide]
25 | ≤ 100 nM | Cc1cnc2c(C(=O)O)cc(Cc3cc(C(=O)NCc4c(C)cc(N)nc4C)ccn3)cc2c1 [Example 84, 6-((4-(((6-amino-2,4-dimethylpyridin-3-yl)methyl)carbamoyl)pyridin-2-yl)methyl)-3-methylquinoline-8-carboxylic acid]
26 | ≤ 100 nM | Cc1cnc2c(S(C)(=O)=O)cc(Cc3cc(C(=O)NCc4ccc5[nH]cc(Cl)c5c4F)ccn3)cc2c1 [Example 21, N-((3-chloro-4-fluoro-1H-indol-5-yl)methyl)-2-((3-methyl-8-(methylsulfonyl)quinolin-6-yl)methyl)isonicotinamide]
27 | ≤ 100 nM | CC(C)(O)c1cc(Cc2cc(C(=O)NCc3ccc4c(N)nccc4c3)ccn2)cc2cc(Cl)cnc12 [Example 224, N-((1-aminoisoquinolin-6-yl)methyl)-2-((3-chloro-8-(2-hydroxypropan-2-yl)quinolin-6-yl)methyl)isonicotinamide]
28 | 100 to 1000 nM | CC(C)(O)c1cc(Cc2cc(C(=O)NCc3cc4c(Cl)c[nH]c4cc3F)ccn2)cc2cc(Cl)cnc12 [Example 221, N-((3-chloro-6-fluoro-1H-indol-5-yl)methyl)-2-((3-chloro-8-(2-hydroxypropan-2-yl)quinolin-6-yl)methyl)isonicotinamide]

Row | Structure (SMILES) | EC50
29 | NC(=O)c1cc(Cc2cc(C(=O)NCc3ccc4[nH]cc(Cl)c4c3F)ccn2)cc2cc(Cl)cnc12 [Example 65, 3-chloro-6-((4-(((3-chloro-4-fluoro-1H-indol-5-yl)methyl)carbamoyl)pyridin-2-yl)methyl)quinoline-8-carboxamide] | ≤ 100 nM
30 | O=C(NCc1cc2c(Cl)c[nH]c2cc1F)c1ccnc(Cc2ccc3ncc(C(F)(F)F)cc3c2)c1 [Example 230, N-((3-chloro-6-fluoro-1H-indol-5-yl)methyl)-2-((3-(trifluoromethyl)quinolin-6-yl)methyl)isonicotinamide] | 100 to 1000 nM
31 | NC(=O)c1cc(Cc2cc(C(=O)NCc3n[nH]c4ccc(Cl)cc34)ccn2)cc2cc(Cl)cnc12 [Example 60, 3-chloro-6-((4-(((5-chloro-1H-indazol-3-yl)methyl)carbamoyl)pyridin-2-yl)methyl)quinoline-8-carboxamide] | 100 to 1000 nM
32 | Cc1nc(N)ccc1CNC(=O)c1ccnc(Cc2ccc3ncc(Cl)cc3c2)c1 [Example 34, N-((6-amino-2-methylpyridin-3-yl)methyl)-2-((3-chloroquinolin-6-yl)methyl)isonicotinamide] | ≤ 100 nM
33 | Cc1cc(N)nc(C)c1CNC(=O)c1ccnc(Cc2cc(CN)c3ncc(Cl)cc3c2)c1 [Example 241, N-((6-amino-2,4-dimethylpyridin-3-yl)methyl)-2-((8-(aminomethyl)-3-chloroquinolin-6-yl)methyl)isonicotinamide] | ≤ 100 nM
34 | Cc1nc(N)ccc1CNC(=O)c1ccnc(Cc2cc3cc(Cl)cnc3cn2)c1 [Example 149, N-((6-amino-2-methylpyridin-3-yl)methyl)-2-((3-chloro-1,7-naphthyridin-6-yl)methyl)isonicotinamide] | ≤ 100 nM
